Experimental data: patent publication US6214581A, “Nucleic acids encoding a functional human purinoreceptor P2X3 and P2X6, and methods of production and use thereof” (Abbott Laboratories, priority 1998, dated 2001)
Like-named read-outs stand apart in the source and are kept apart here.

What was measured:
human P2X3 receptors = target: T1, human P2X3 receptors (Homo sapiens, UniProt P56373); test: Two-electrode voltage-clamp of Xenopus oocytes expressing recombinant human P2X3 receptor; assay type: cell-based; settings: for rank order potency: extracellular P2 receptor agonists; for rank order potency / block of P2X3 receptors: summary; for block of ATP-induced currents: ATP 0.3 μM, antagonist superfused at least 3 minutes before agonist; for block of P2X3 receptors: P2 receptor antagonists
T1 construct: expressed in transfected cells; host or cells: Xenopus laevis oocytes (nuclear injection of the P2X3 insert in pCDNA3.1)
T1 sequence (P56373 1-397): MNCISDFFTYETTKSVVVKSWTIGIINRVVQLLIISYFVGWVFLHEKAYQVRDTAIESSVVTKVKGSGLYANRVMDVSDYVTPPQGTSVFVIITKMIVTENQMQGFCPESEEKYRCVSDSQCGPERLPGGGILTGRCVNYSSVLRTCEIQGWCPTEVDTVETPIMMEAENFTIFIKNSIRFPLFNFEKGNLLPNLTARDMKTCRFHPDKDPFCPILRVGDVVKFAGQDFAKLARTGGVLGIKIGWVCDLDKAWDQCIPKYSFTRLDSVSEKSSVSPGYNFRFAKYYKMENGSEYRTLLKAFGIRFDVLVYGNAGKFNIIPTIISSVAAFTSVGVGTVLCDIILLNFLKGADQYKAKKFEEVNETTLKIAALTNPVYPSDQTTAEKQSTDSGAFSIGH
Method: Responses were measured at a holding potential of -60 mV in modified Barth's solution containing 10 mM BaCl2 and lacking CaCl2 and MgCl2 (final pH 7.4). However, in some experiments, the cell potential was intentionally varied in order to determine the response current-voltage relationship. Agonist was applied briefly using a computer-controlled solenoid valve and a push/pull applicator positioned to within 200-400 μm from the oocyte. Responses were recorded by computer in synchrony with agonist application. Antagonists were included with agonist in the push/pull applicator and were applied to the bath by superfusion for at least 3 minutes before application of agonist. Responses were quantified by measuring the peak amplitude.
The clone was grown up and prepared in large scale using the QIAgen maxiprep DNA preparation system according to the manufacturer's instructions. T he DNA was ethanol precipitated and resuspended in TE buffer. For RNA production, the P2X3 -pCDNA3.1 construct was linearized by digestion with the restriction enzyme NotI and P2X3 messenger RNA was produced using the T7 promoter in this vector and the Ambion mMessage mMachine™ in vitro transcription kit according to the manufacturer's instructions.
For functional anaysis of human P2X3 receptors, 10 ng of human P2X3 DNA prepared as described above were injected into the nucleus of Xenopus oocytes. Oocytes were incubated in normal Barth's solution containing 100 μg/ml gentamicin for 2-7 days following injection. The response to 10 μM ATP was then recorded.

[1] = system: P2X receptors on dorsal root ganglion nerve terminals in the spinal cord; settings: ATP-induced activation of P2X receptors on dorsal root ganglion nerve terminals; cited from earlier work
P2X4 receptor = settings: cited from earlier work
P2X6 receptor = settings: cited from earlier work
P2X1 = settings: cited from earlier work
P2X2 = settings: cited from earlier work

## CSc1nc(N)c2ncn([C@@H]3O[C@H](COP(=O)(O)OP(=O)(O)OP(=O)(O)O)[C@@H](O)[C@H]3O)c2n1 [2-methylthio-ATP]
Human P2X3 receptors; concentration-response, agonist, human P2X3 in Xenopus oocytes, ATP 0.01-1000 μM, read-out: EC50
  EC50: 400 nM
Human P2X3 receptors
  rank order potency: 2-methylthio-ATP>ATP>α,β-methylene-ATP

## Nc1ncnc2c1ncn2[C@@H]1O[C@H](COP(=O)(O)OP(=O)(O)OP(=O)(O)O)[C@@H](O)[C@H]1O [ATP]
Human P2X3 receptors
  EC50: ~700 nM
  rank order potency: 2-methylthio-ATP>ATP>α,β-methylene-ATP
Human P2X3 receptors; ATP-induced current-voltage relationships
  reversal potential: approximately zero
Human P2X3 receptors; ATP-induced, negative membrane potentials
  current-voltage rectification: pronounced inward rectification
Human P2X3 receptors; extracellular ATP (10 μM), holding potential -60 mV, oocytes injected with human P2X3 DNA
  mixed-conductance cation current: 100-6000 nA
[1]
  release of glutamate: stimulates the release of glutamate

## Cc1nc(N=Nc2ccc(S(=O)(=O)O)cc2S(=O)(=O)O)c(COP(=O)(O)O)c(C=O)c1O [PPADS, pyridoxal-phosphate-6-azophenyl-2',4'-disulfonic acid]
Human P2X3 receptors
  block of ATP-induced currents: complete block
  block of P2X3 receptors: blocked
P2X4 receptor
  block of P2X4 receptor: cannot be blocked
P2X6 receptor
  block of P2X6 receptor: cannot be blocked

## Cc1ccc(C(=O)Nc2ccc(S(=O)(=O)O)c3cc(S(=O)(=O)O)cc(S(=O)(=O)O)c23)cc1NC(=O)c1cccc(NC(=O)Nc2cccc(C(=O)Nc3cc(C(=O)Nc4ccc(S(=O)(=O)O)c5cc(S(=O)(=O)O)cc(S(=O)(=O)O)c45)ccc3C)c2)c1 [suramin]
Human P2X3 receptors
  block of ATP-induced currents: complete block
  block of P2X3 receptors: blocked
P2X4 receptor
  block of P2X4 receptor: cannot be blocked
P2X6 receptor
  block of P2X6 receptor: cannot be blocked

## Nc1ncnc2c1ncn2[C@@H]1O[C@H](COP(=O)(O)CP(=O)(O)OP(=O)(O)O)[C@@H](O)[C@H]1O [α,β-methylene-ATP]
Human P2X3 receptors
  EC50: 2100 nM
  rank order potency: 2-methylthio-ATP>ATP>α,β-methylene-ATP
P2X4 receptor; agonist
  activation of P2X4 receptor: not activated
P2X6 receptor; agonist
  activation of P2X6 receptor: not activated
P2X1
  sensitivity of P2X1 to agonist: sensitive
P2X2
  sensitivity of P2X2 to agonist: insensitive
